Assay results from patent publication US9522888B2, “Substituted bicyclic compounds” (BRISTOL-MYERS SQUIBB COMPANY, priority 2014, dated 2016).
pEC50, pIC50: −log10 of the molar value.

Key:
[1] = test system: circulating lymphocytes; assay: Blood Lymphocyte Reduction (BLR) assay in rat; assay type: in vivo, Lewis rats; conditions: oral; for Percent reduction vs. control at 24 hr post-dose: blood lymphocytes; for lymphocyte reduction: rodent BLR assay, 24 hours post-dose, versus vehicle treated group
Experimental: Blood Lymphocyte Reduction (BLR) Assay in Rodent:
Lewis rats or BALB/c mice were dosed orally with vehicle alone (polyethylene glycol 300, “PEG300”) or with test compounds. Compounds were dosed as a solution or suspension in the vehicle, adjusted to reflect the free amount of test article in the event that salt forms are utilized. Blood was drawn at 24 hr and blood lymphocyte counts were determined on an ADVIA 120 Hematology Analyzer (Siemens Healthcare Diagnostics). The results were measured as a reduction in the percentage of circulating lymphocytes as compared to the vehicle treated group at the time of measurement. The results represent the average results of all animals within each treatment group (n=2-4).

[2] = target: S1P1 (membranes prepared from S1P1/CHO cells) (Homo sapiens (Human), UniProt P21453); assay: Receptor [35S] GTPγS binding assay (S1P1 GTPγS); assay type: biochemical; conditions: phosphate examples; read-out: S1P1 GTPγS
S1P1 (membranes prepared from S1P1/CHO cells), sequence (P21453 whole entry): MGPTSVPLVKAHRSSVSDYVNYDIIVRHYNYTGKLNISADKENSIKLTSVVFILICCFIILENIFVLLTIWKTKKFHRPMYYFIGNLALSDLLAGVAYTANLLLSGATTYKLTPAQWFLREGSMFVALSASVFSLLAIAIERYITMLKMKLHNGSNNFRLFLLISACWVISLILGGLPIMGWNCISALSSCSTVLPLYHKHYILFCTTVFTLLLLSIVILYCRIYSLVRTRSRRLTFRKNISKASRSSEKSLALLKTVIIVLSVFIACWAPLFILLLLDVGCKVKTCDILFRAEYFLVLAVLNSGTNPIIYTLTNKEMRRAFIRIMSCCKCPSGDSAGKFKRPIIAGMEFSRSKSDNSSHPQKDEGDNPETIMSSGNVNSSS
Procedure, shortened: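 Agonist-stimulated [35S]GTPγS binding (0.2 nM final) to S1P1/CHO membranes, 3 μg protein/well, measured after 45 min at room temperature. Buffer contained 10 μM GDP, saponin and fatty-acid-free BSA at pH 7.5. Compounds tested as 11-point 3-fold series; bound label captured on filters, scintillation-counted, EC50 reported.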

[3] = target: S1P3 (membranes prepared from EDG3-Gal5-bla HEK293T cells) (Homo sapiens (Human), UniProt Q99500); assay: Receptor [35S] GTPγS binding assay (S1P3 GTPγS); assay type: biochemical; conditions: phosphate examples; read-out: S1P3 GTPγS
S1P3 (membranes prepared from EDG3-Gal5-bla HEK293T cells), sequence (Q99500 whole entry): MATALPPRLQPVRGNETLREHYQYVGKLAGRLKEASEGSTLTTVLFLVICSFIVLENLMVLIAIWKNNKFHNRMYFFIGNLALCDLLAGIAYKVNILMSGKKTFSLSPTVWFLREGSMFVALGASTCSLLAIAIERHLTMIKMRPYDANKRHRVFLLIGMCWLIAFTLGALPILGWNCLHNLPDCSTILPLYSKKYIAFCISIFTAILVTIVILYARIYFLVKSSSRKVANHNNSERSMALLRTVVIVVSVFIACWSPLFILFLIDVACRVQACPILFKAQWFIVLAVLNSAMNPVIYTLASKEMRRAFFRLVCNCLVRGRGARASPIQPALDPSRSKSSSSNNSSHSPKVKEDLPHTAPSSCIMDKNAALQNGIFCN
Procedure, shortened: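 Membranes (3 μg protein/well) from S1P1/CHO cells or EDG3-Gal5-bla HEK293T cells (S1P3) were incubated 45 min at room temperature with 0.2 nM final [35S]GTPγS in HEPES pH 7.5 buffer with 10 μM GDP, MgCl2 and saponin. Bound label counted after filtration; EC50 from 11-point, 3-fold dilutions.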

[4] = target: human S1P1 (Homo sapiens (Human), UniProt P21453); assay: S1P1 binding assay (33P-S1P radioligand competition, CHO cell membranes); conditions: phosphate examples; read-out: S1P1 Binding
human S1P1, sequence (P21453 whole entry): as the sequence (P21453 whole entry) above
Procedure, shortened: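 Radioligand is 33P-S1P, competing for membranes from human S1P1-expressing CHO cells. Membranes resuspended in 50 mM HEPES pH 7.5, 100 mM NaCl, 1 mM MgCl2, 2 mM EDTA.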

[5] = target: hS1P1/CHO cells (Homo sapiens (Human), UniProt P21453); assay: hS1P1 ERK phosphorylation (S1P1 pERK); assay type: cell-based; conditions: phosphate examples
hS1P1/CHO cells, sequence (P21453 whole entry): as above
Procedure, shortened: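 Agonism read as ERK phosphorylation (SureFire pERK) in hS1P1/CHO lysates, normalised to the maximal effect of 10 μM S1P. Cells were held 2 h in serum-free medium, then treated with compound for 7 min at 37° C. in HBSS/20 mM HEPES.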

Structure (SMILES)	Percent reduction vs. control at 24 hr post-dose ([1]; 0.1 mg/kg)	Percent reduction vs. control at 24 hr post-dose ([1]; 0.3 mg/kg)	lymphocyte reduction ([1]; 0.1 mg/kg)	Percent reduction vs. control at 24 hr post-dose ([1]; 0.05 mg/kg)	pEC50 [2]	pEC50 [3]	pIC50 [4]	pEC50 [5]
COCCCCCC1CCc2cc([C@@H]3CC[C@](N)(CO)C3)ccc2C1 (single isomer, unassigned) [Example 674]	30%	73%	30%					
COCCCCCC1CCc2cc([C@@H]3CC[C@](N)(CO)C3)ccc2C1 (single isomer, unassigned) [Example 675]	63%		63%					
COCCCCC[C@@H]1CCc2cc([C@H]3CC[C@](N)(CO)C3)ccc2C1 [Example 673, ((1R,3S)-1-amino-3-((R)-6-(5-methoxypentyl)-5,6,7,8-tetrahydronaphthalen-2-yl)cyclopentyl)methanol]	62%							
COc1cccc(CC[C@H]2CCc3cc([C@H]4CC[C@](N)(CO)C4)ccc3C2)c1 [Example 676, ((1R,3S)-1-amino-3-((S)-6-(3-methoxyphenethyl)-5,6,7,8-tetrahydronaphthalen-2-yl)cyclopentyl) methanol]	63%							
COc1cccc(CC[C@@H]2CCc3cc([C@H]4CC[C@](N)(CO)C4)ccc3C2)c1 [Example 677, ((1R,3S)-1-amino-3-((R)-6-(3-methoxyphenethyl)-5,6,7,8-tetrahydronaphthalen-2-yl)cyclopentyl)methanol]				49%				
N[C@@]1(COP(=O)(O)O)CC[C@@H](c2ccc3c(c2)CC[C@@H](CCc2ccc4ccccc4n2)C3)C1 [compound 605]					> 8.00	< 6.20	> 8.00	> 8.00
CC(C)OCCCC[C@H]1CCc2cc([C@H]3CC[C@](N)(COP(=O)(O)O)C3)ccc2C1 [compound 610]					> 8.00	< 7.00	7.00 to 8.00	> 8.00
N[C@]1(COP(=O)(O)O)CC[C@H](c2ccc3c(c2)CC[C@H](CS(=O)(=O)c2ccccc2)C3)C1 [compound 618]					6.00 to 7.00	< 6.20	6.00 to 7.00	> 8.00
CCCCC(C)(C)C(=O)OC1CCc2cc([C@H]3CC[C@@](N)(COP(=O)(O)O)C3)ccc2C1 (stereo partly drawn) [compound 624]					> 8.00	< 6.20	5.00 to 6.00	6.00 to 7.00
CCCCCCNC(=O)OC1CCc2cc([C@H]3CC[C@@](N)(COP(=O)(O)O)C3)ccc2C1 (stereo partly drawn) [compound 626]					7.00 to 8.00	< 6.20	7.00 to 8.00	> 8.00
CCCCCC(=O)NC1CCc2cc([C@H]3CC[C@@](N)(COP(=O)(O)O)C3)ccc2C1 (stereo partly drawn) [compound 629]					6.00 to 7.00	< 6.20	6.00 to 7.00	> 8.00
CCCC[C@H]1CCCC2(CCc3cc([C@H]4CC[C@](N)(COP(=O)(O)O)C4)ccc3C2)O1 (stereo partly drawn) [compound 632]					7.00 to 8.00	< 6.20	7.00 to 8.00	> 8.00
CCCC[C@@H]1CCCC2(CCc3cc([C@H]4CC[C@](N)(COP(=O)(O)O)C4)ccc3C2)O1 (stereo partly drawn) [compound 633]					6.00 to 7.00	< 6.20	7.00 to 8.00	> 8.00
CCCCC1CCc2cc([C@H]3CC[C@](N)(COP(=O)(O)O)C3)ccc2C1=O (stereo partly drawn) [compound 635]					7.00 to 8.00	< 6.20	> 8.00	> 8.00
CCCC/C=C/[C@@H]1CCc2cc([C@H]3CC[C@](N)(COP(=O)(O)O)C3)ccc2C1 [compound 636]					7.00 to 8.00	< 6.20	7.00 to 8.00	7.00 to 8.00
CCCC/C=C/[C@@H]1CCc2cc([C@H]3CC[C@](N)(COP(=O)(O)O)C3)ccc2C1 [compound 637]					7.00 to 8.00	< 6.20	> 8.00	7.00 to 8.00
COCCC/C=C/[C@H]1CCc2cc([C@H]3CC[C@](N)(COP(=O)(O)O)C3)ccc2C1 [compound 638]					7.00 to 8.00	< 7.00	> 8.00	> 8.00
C=CCC/C=C/[C@@H]1CCc2cc([C@H]3CC[C@](N)(COP(=O)(O)O)C3)ccc2C1 [compound 639]					7.00 to 8.00	< 6.20	7.00 to 8.00	7.00 to 8.00

Structure (SMILES)	Percent reduction vs. control at 24 hr post-dose ([1]; 0.1 mg/kg)	Percent reduction vs. control at 24 hr post-dose ([1]; 0.3 mg/kg)	lymphocyte reduction ([1]; 0.1 mg/kg)	Percent reduction vs. control at 24 hr post-dose ([1]; 0.05 mg/kg)	pEC50 [2]	pEC50 [3]	pIC50 [4]	pEC50 [5]
COCCC/C=C/[C@@H]1CCc2cc([C@H]3CC[C@](N)(COP(=O)(O)O)C3)ccc2C1 [compound 640]					> 8.00	< 6.20	> 8.00	> 8.00
COc1ccccc1/C=C/[C@@H]1CCc2cc([C@H]3CC[C@](N)(COP(=O)(O)O)C3)ccc2C1 [compound 641]					7.00 to 8.00	< 6.20	6.00 to 7.00	7.00 to 8.00
N[C@]1(COP(=O)(O)O)CC[C@H](c2ccc3c(c2)CC[C@@H](/C=C/C2CCOCC2)C3)C1 [compound 642]					> 8.00	< 6.20	7.00 to 8.00	> 8.00
COc1cccc(/C=C/[C@@H]2CCc3cc([C@H]4CC[C@](N)(COP(=O)(O)O)C4)ccc3C2)c1 [compound 643]					7.00 to 8.00	< 6.20	> 8.00	7.00 to 8.00
Cc1cccc(/C=C/[C@@H]2CCc3cc([C@H]4CC[C@](N)(COP(=O)(O)O)C4)ccc3C2)c1 [compound 644]					7.00 to 8.00	< 6.20	6.00 to 7.00	6.00 to 7.00
CC(C)CC/C=C/[C@@H]1CCc2cc([C@H]3CC[C@](N)(COP(=O)(O)O)C3)ccc2C1 [compound 645]					7.00 to 8.00	< 6.20	6.00 to 7.00	7.00 to 8.00
CCCCC=C[C@H]1CCc2cc([C@H]3CC[C@](N)(COP(=O)(O)O)C3)ccc2C1 [compound 648]					7.00 to 8.00	< 6.20	7.00 to 8.00	7.00 to 8.00
CC/C=C/CC[C@@H]1CCc2cc([C@H]3CC[C@](N)(COP(=O)(O)O)C3)ccc2C1 [compound 650]					6.00 to 7.00	< 6.20	7.00 to 8.00	7.00 to 8.00
CC/C=C\CC[C@@H]1CCc2cc([C@H]3CC[C@](N)(COP(=O)(O)O)C3)ccc2C1 [compound 651]					7.00 to 8.00	< 6.20	7.00 to 8.00	7.00 to 8.00
C/C=C\CCC[C@@H]1CCc2cc([C@H]3CC[C@](N)(COP(=O)(O)O)C3)ccc2C1 [compound 656]					7.00 to 8.00	< 6.20	7.00 to 8.00	7.00 to 8.00
C/C=C\CCC[C@H]1CCc2cc([C@H]3CC[C@](N)(COP(=O)(O)O)C3)ccc2C1 [compound 657]					> 8.00	< 6.20	7.00 to 8.00	7.00 to 8.00
CC/C=C/CC[C@H]1CCc2cc([C@H]3CC[C@](N)(COP(=O)(O)O)C3)ccc2C1 [compound 658]					7.00 to 8.00	< 6.20	> 8.00	> 8.00
C/C=C/CCCC[C@H]1CCc2cc([C@H]3CC[C@](N)(COP(=O)(O)O)C3)ccc2C1 [compound 659]					> 8.00	< 6.20	> 8.00	7.00 to 8.00
C/C=C\CCCC[C@H]1CCc2cc([C@H]3CC[C@](N)(COP(=O)(O)O)C3)ccc2C1 [compound 660]					> 8.00	< 6.20	> 8.00	7.00 to 8.00
C/C=C\CCCC[C@@H]1CCc2cc([C@H]3CC[C@](N)(COP(=O)(O)O)C3)ccc2C1 [compound 661]					> 8.00	< 6.20	> 8.00	> 8.00
C/C(=N\OCc1ccccc1)[C@@H]1CCc2cc([C@H]3CC[C@](N)(COP(=O)(O)O)C3)ccc2C1 [compound 664]					> 8.00	< 6.20	> 8.00	> 8.00
CCCCO/N=C(\C)[C@@H]1CCc2cc([C@H]3CC[C@](N)(COP(=O)(O)O)C3)ccc2C1 [compound 665]					> 8.00	< 6.20	> 8.00	7.00 to 8.00
CCCC[S+]([O-])C[C@@H]1CCc2cc([C@H]3CC[C@](N)(COP(=O)(O)O)C3)ccc2C1 (stereo partly drawn) [compound 668]					> 8.00	< 6.20	> 8.00	7.00 to 8.00
